The nature of data set [1]: Clearance in Sprague-Dawley rat at 2 mg/kg, iv measured for 24 hrs by LC-MS/MS analysis. In kind it is ADME, organism-based. As to conditions: in vivo.
Data set [2] is described as follows: Oral bioavailability in Sprague-Dawley rat at 5 mg/kg measured for 24 hrs by LC-MS/MS analysis. In kind it is ADME, organism-based. Particulars: in vivo; for bioavailability: Sprague-Dawley.
Data set [3] in a line: Half life in Sprague-Dawley rat at 2 mg/kg, iv measured for 24 hrs by LC-MS/MS analysis. In kind it is ADME, organism-based. As to conditions: in vivo.
Data set [4] is described as follows: AUC (0 to t) in Sprague-Dawley rat at 2 mg/kg, iv measured for 24 hrs by LC-MS/MS analysis. The arrangement: dose 2 mg/kg, time 24 hrs, route iv. As to conditions: in vivo; for AUC(0-t) at 24 h: Sprague-Dawley. In kind it is ADME, organism-based.
The nature of data set [5]: Cmax in Sprague-Dawley rat at 2 mg/kg, iv measured for 24 hrs by LC-MS/MS analysis. In kind it is ADME, organism-based. Details: time 24 hrs, dose 2 mg/kg, route iv. Particulars: in vivo.
A short description of data set [6]: Volume of distribution at steady state in Sprague-Dawley rat at 2 mg/kg, iv measured for 24 hrs by LC-MS/MS analysis. The data set is classed as ADME, organism-based. As to conditions: in vivo, read-out: Vdss.
The nature of data set [7]: Cmax in Sprague-Dawley rat at 5 mg/kg, po measured for 24 hrs by LC-MS/MS analysis. The data set is classed as ADME, organism-based. The arrangement: time 24 hrs, dose 5 mg/kg, route po. As to conditions: in vivo.
Data set [8] can be described thus: Half life in Sprague-Dawley rat at 5 mg/kg, po measured for 24 hrs by LC-MS/MS analysis. The data set is classed as ADME, organism-based. Particulars: in vivo.
Data set [9] in a line: AUC (0 to t) in Sprague-Dawley rat at 5 mg/kg, po measured for 24 hrs by LC-MS/MS analysis. The data set is classed as ADME, organism-based. The arrangement: time 24 hrs, dose 5 mg/kg, route po. Particulars: in vivo; for AUC(0-t) at 24 h: Sprague-Dawley.
Data set [10] concerns the target 5-hydroxytryptamine receptor 6 (Homo sapiens, UniProt P50406). As to the kind of experiment: Displacement of [3H]-LSD from human 5HT6 receptor expressed in CHO cells assessed as inhibition constant incubated for 120 mins by liquid scintillation counting analysis. In kind it is cell-based.
A short description of data set [11]: Ratio of drug concentration in Sprague-Dawley rat brain to plasma at 1 mg/kg, iv measured after 45 mins by LC-MS/MS analysis. Particulars: brain and plasma, read-out: BPR. In kind it is ADME, organism-based.
The nature of data set [12]: Drug concentration in Sprague-Dawley rat brain at 1 mg/kg, iv measured after 15 mins by LC-MS/MS analysis. In kind it is ADME, organism-based. As to conditions: read-out: Ct.
The nature of data set [13]: Ratio of drug concentration in Sprague-Dawley rat brain to plasma at 1 mg/kg, iv measured after 75 mins by LC-MS/MS analysis. In kind it is ADME, organism-based. As to conditions: brain and plasma, read-out: BPR.
Data set [14] in a line: Drug concentration in Sprague-Dawley rat plasma at 1 mg/kg, iv measured after 15 mins by LC-MS/MS analysis. The data set is classed as ADME, organism-based.
Data set [15] can be described thus: Drug concentration in Sprague-Dawley rat plasma at 1 mg/kg, iv measured after 75 mins by LC-MS/MS analysis. The data set is classed as ADME, organism-based.
Data set [16] can be described thus: Drug concentration in Sprague-Dawley rat plasma at 1 mg/kg, iv measured after 45 mins by LC-MS/MS analysis. The data set is classed as ADME, organism-based.
Data set [17] in a line: Drug concentration in Sprague-Dawley rat brain at 1 mg/kg, iv measured after 45 mins by LC-MS/MS analysis. The data set is classed as ADME, organism-based. Particulars: read-out: Ct.
Data set [18] is described as follows: Ratio of drug concentration in Sprague-Dawley rat brain to plasma at 1 mg/kg, iv measured after 15 mins by LC-MS/MS analysis. Particulars: brain and plasma, read-out: BPR. The data set is classed as ADME, organism-based.
Data set [19] can be described thus: Drug concentration in Sprague-Dawley rat brain at 1 mg/kg, iv measured after 75 mins by LC-MS/MS analysis. Particulars: read-out: Ct. In kind it is ADME, organism-based.
Data set [20] is described as follows: In vivo antagonist activity at 5-HT6R in Sprague-Dawley rat assessed as increase in intracerebral hippocampal acetylcholine level at 5 mg/kg, ip pretreated for 30 mins followed by donepezil addition and measured every 20 mins for 360 mins by LC-MS/MS analysis relative to control. The data set is classed as functional. Details: scale not given: the % may be the effect or the level left. As to conditions: time 390 min, 6.5 h.

Data set [21] can be described thus: In vivo antagonist activity at 5-HT6R in Sprague-Dawley rat assessed as increase in intracerebral hippocampal acetylcholine level at 1.5 mg/kg, ip pretreated for 30 mins followed by donepezil addition and measured every 20 mins for 360 mins by LC-MS/MS analysis relative to control. The data set is classed as functional. Details: scale not given: the % may be the effect or the level left. Particulars: time 390 min, 6.5 h.

Another data set has as its system Rattus norvegicus. Kind of data set: Cognitive enhancing effect in Wistar rat model of scopolamine-induced cognitive impairment assessed as rescue of loss of preference for new object at 3 to 5 mg/kg, ip administered as single dose for 30 mins followed by scopolamine addition and measured after 30 mins by Novel object recognition assay. The data set is classed as functional, organism-based. Particulars: dose 3-5 mg/kg, time 1.0 hrs.

The test system of another data set is Mus musculus. As to the kind of experiment: Cognitive enhancing effect in C57BL/6J mouse model of scopolamine-induced memory deficit assessed as reduction in incubation period of mouse entering into dark compartment at 10 mg/kg, ip pretreated for 30 mins followed by scopolamine addition and measured after 30 mins by step-through passive avoidance test. Particulars: time 1.0 hrs. In kind it is functional, organism-based.

Structures are written as SMILES. Active and inactive are the calls of the source. The calls are words filed in the database; no cut-off is given here.

As a reminder, the clearance is the volume of plasma or blood freed of the substance per unit of time. As usually defined, the bioavailability is the share of a dose that reaches the circulation, judged against a reference dose that is usually intravenous. A word on the half-life: it is how long it takes for the measured level to halve. As usually defined, the AUC(0-t) is the area under the concentration-time curve up to a stated or last time point. A word on the Cmax: it is the highest concentration seen after dosing. As usually defined, the Ki is the equilibrium dissociation constant of an inhibitor or competing ligand from its target.

5-hydroxytryptamine receptor 6, sequence (P50406 whole entry): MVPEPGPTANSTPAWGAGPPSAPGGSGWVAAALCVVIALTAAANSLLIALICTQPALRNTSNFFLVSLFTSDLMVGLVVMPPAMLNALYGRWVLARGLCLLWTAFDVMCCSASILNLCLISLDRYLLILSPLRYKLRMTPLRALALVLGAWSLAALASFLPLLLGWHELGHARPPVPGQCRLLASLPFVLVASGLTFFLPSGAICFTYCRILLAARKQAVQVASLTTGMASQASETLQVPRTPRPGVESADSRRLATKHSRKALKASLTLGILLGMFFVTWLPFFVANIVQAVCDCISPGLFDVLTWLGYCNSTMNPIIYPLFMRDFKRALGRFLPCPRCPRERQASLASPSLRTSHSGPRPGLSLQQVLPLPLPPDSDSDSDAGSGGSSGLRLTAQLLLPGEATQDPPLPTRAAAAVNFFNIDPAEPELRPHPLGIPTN

The molecule `O=S(=O)(c1ccccc1Cl)n1cc(C(F)F)c2c(N3CCNCC3)cccc21` came in with a clearance in data set [1] of 7.38 L/h/kg. The bioavailability in data set [2] was found to be 29.5%. Besides, the half-life in data set [3] is 2.55 h; in data set [8], 3.01 h. In addition, the exposure AUC(0-t) at 24 h in data set [4] came to 0.242 µg·h/mL; in [9] it was 0.162 µg·h/mL. Also, the maximum concentration (Cmax) turned out to be 0.12 µg/mL in data set [5] and 0.0336 µg/mL in [7]. The Vd in [6] was 25.8 L/kg.

Take `Cc1cn(S(=O)(=O)c2cccc(F)c2)c2cccc(N3CCNCC3)c12`: the clearance in data set [1] is 3.78 L/h/kg. This molecule gave a F in data set [2] (po, 5 mg/kg, 24 h) of 5.95%. The molecule also gave a half-life in data set [3] of 1.4 h. For the same molecule, the AUCt stood at 0.254 µg·h/mL in data set [4] (24 h) and 0.00937 µg·h/mL in data set [9] (24 h). In addition, the Cmax is 0.159 µg/mL in [5] and 0.00361 µg/mL in data set [7]. In [10], the Ki was 0.51 nM. Moreover, in data set [6], the Vd was 6.7 L/kg.

With `O=S(=O)(c1cccc(Cl)c1)n1cc(C(F)F)c2c(N3CCNCC3)cccc21`, the Kp at 0.75 h in data set [11] is 2.37. Further, the concentration at 0.25 h in data set [12] is 406 ng/g; in [14] it was 0.434 µg/mL. In addition, the clearance in data set [1] is 4.97 L/h/kg. In addition, the Kp at 1.25 h in data set [13] amounted to 3.21. In addition, the bioavailability in [2] is 37%. Also, the half-life is 4.46 h in data set [3] and 4.39 h in [8]. For the same molecule, the AUC(0-t) at 24 h in data set [4] came to 0.306 µg·h/mL; in data set [9], 0.348 µg·h/mL. The maximum concentration (Cmax) in data set [5] was 0.2 µg/mL; in [7], 0.0441 µg/mL. Moreover, the concentration at 1.25 h in [15] stood at 0.0696 µg/mL; in [19], 224 ng/g. The concentration at 0.75 h stood at 0.127 µg/mL in data set [16] and 302 ng/g in data set [17]. Also, the Vd in data set [6] worked out at 26.6 L/kg. Besides, the Kp at 0.25 h in data set [18] turned out to be 0.94.

Molecule `O=S(=O)(c1ccccc1F)n1cc(C(F)F)c2c(N3CCNCC3)cccc21` came in with a clearance in [1] of 6.48 L/h/kg. This molecule also registered a bioavailability in [2] of 18.5%. For the same molecule, the half-life is 2.54 h in data set [3] and 1.98 h in data set [8]. Further, the AUC(0-t) at 24 h is 0.272 µg·h/mL in data set [4] and 0.132 µg·h/mL in data set [9]. The Cmax in [5] came out at 0.112 µg/mL; in [7] it was 0.0336 µg/mL. Also, in data set [6], the Vd was found to be 24 L/kg.

With `O=S(=O)(c1cccc(F)c1)n1cc(C(F)F)c2c(N3CCNCC3)cccc21`, in data set [11], the Kp at 0.75 h amounted to 6.17. For the same molecule, the results for the concentration at 0.25 h in data set [12] and in data set [14] were 279 ng/g and 0.0581 µg/mL, respectively. This molecule also came in with a clearance in data set [1] of 5.6 L/h/kg. Besides, the Activity in data set [20] turned out to be 287%; in data set [21], 235%. For the same molecule, the Kp at 1.25 h in data set [13] was 6.16. In data set [2], this molecule displayed a bioavailability of 34.4%. The half-life in data set [3] was 2.28 h; in data set [8], 4.33 h. In addition, the area under the curve AUC(0-t) at 24 h in data set [4] came out at 0.323 µg·h/mL; in data set [9], 0.267 µg·h/mL. Moreover, the Cmax in data set [5] was 0.14 µg/mL; in [7] it was 0.0518 µg/mL. Also, the concentration at 1.25 h in [15] was 0.0208 µg/mL; in data set [19], 128 ng/g. The values for the concentration at 0.75 h in [16] and in data set [17] were 0.0303 µg/mL and 187 ng/g, respectively. The Vd in data set [6] was 18.8 L/kg. In data set [18], the Kp at 0.25 h turned out to be 4.81. Besides, the result in the data set with Rattus norvegicus and with Mus musculus was Active.
